Test system: LTB4 receptor
Assay: TXB2 release from guinea pig eosinophils stimulated with LTB4 (LTB4 receptor antagonist activity)
Format: cell-based
Settings: 10^−3 M test compound (37.5 μl) added to 300 μl cell suspension, then 10^−7 M LTB4 (37.5 μl), 37° C. 15 min, positive control 100, negative control 0, N.D. = TXB2 concentration at measurement limit or less
Procedure: The LTB4 receptor antagonist activity of the test compound was examined using, as an index, thromboxane B2 (TXB2) released when stimulating eosinophil of guinea pig with LTB4.
Based on the method described in Japanese Journal of Pharmacology, vol. 70, p. 337-345 (1996) etc., eosinophils of guinea pig were prepared. A cell suspension (300 μl, 1.25×10^6 cells/ml) was placed in a 5 ml polypropylene test tube and, after incubation at 37° C. for 5 min., 10^−3 M test compound (37.5 μl) dissolved in 0.1% DMSO aqueous solution was added and the cells were continuously cultured for 5 min. Then, 10^−7 M LTB4 (37.5 μl) was added to induce the reaction and the cells were incubated at 37° C. for 15 min. The reaction was quenched in ice water, and the culture was centrifuged at 4° C., 3000 rpm for 10 min. The obtained supernatant was prepared as a sample for TXB2 measurement, and preserved at −80° C. before use for the measurement. The quantitation of TXB2 was performed using a TXB2 enzyme immunoassay kit (manufactured by Cayman Chemical Company). The release ratio (%) of TXB2 from the eosinophils was determined by the following formula: release ratio (%) of TXB2=[(average value of test compound administration group−average value of negative control group)/(average value of positive control group−average value of negative control group)]×100
As used herein, the positive control group means a group to which stimulation with LTB4 was applied but the same volume of a medium was given instead of the test compound, and the negative control group means a group to which stimulation with LTB4 was not applied, the same volume of a medium was given instead of LTB4, and the same volume of a medium was given instead of the test compound. When the release ratio of TXB2 is smaller than 0, it means that the measured TXB2 concentration was lower than that of the negative control group. When the TXB2 concentration in the sample was the measurement limit or less, N.D. is indicated.

Structure (SMILES) | Amount of TXB2 release (%)
CCN(CC)C(=O)/C=C(\C)c1ccc(OC(C)c2ccccc2)c2oc(C(C)=O)cc12 (stereo not shown) [Example 1, (E)-3-[2-acetyl-7-(1-phenylethoxy)benzofuran-4-yl]-N,N-diethyl-2-butenamide] | 0.42%
COc1cccc2cc(C(C)NC(=O)/C=C/c3ccccc3)oc12 (stereo not shown) [Example 132, (E)-N-[1-(7-methoxybenzofuran-2-yl)ethyl]-3-phenylacrylamide] | 14.05%
CCN(CC)C(=O)/C=C(\C)c1ccc(OCCCC(=O)O)c2oc(/C(C)=C/C(=O)O)cc12 [Example 2, (E)-3-[7-(3-carboxypropoxy)-4-(2-diethylcarbamoyl-1-methylvinyl)benzofuran-2-yl]-2-butenoic acid] | 5.77%
CCOC(=O)CCCOc1ccc(Br)c2cc(/C(C)=C/C(=O)N(CC)CC)oc12 [Example 35] | 1.02%
COc1ccc(CCNC(=O)/C=C(\C)c2ccc(OC(C)c3ccccc3)c3oc(C(C)=O)cc23)cc1OC (stereo not drawn) [Example 8, (E)-3-[2-acetyl-7-(l-phenylethoxy)benzofuran-4-yl]-N-[2-(3,4-dimethoxyphenyl)ethyl]-2-butenamide] | 41.73%
CCN(CC)C(=O)/C=C(\C)c1cc2cccc(OC(c3ccccc3)c3ccccc3)c2o1 [Example 37, (E)-3-(7-benzhydryloxybenzofuran-2-yl)-N,N-diethyl-2-butenamide] | 15.69%
COc1ccc(CCNC(=O)/C=C(\C)c2ccc3oc(C(C)=O)c(NC(=O)c4cnoc4C)c3c2)cc1OC [Example 72, (E)-N-(2-acetyl-5-(2-[2-(3,4-dimethoxyphenyl)ethylcarbamoyl]-1-methylvinyl)benzofuran-3-yl)-5-methylisoxazole-4-carboxamide] | 84.46%
CCN(CC)C(=O)/C=C(/C)c1cc2cccc(OC(C)C)c2o1 [Example 34, (Z)-3-(7-isopropoxybenzofuran-2-yl)-N,N-diethyl-2-butenamide] | −0.063%
CCOC(=O)CCCOc1ccc(/C(C)=C/C(=O)N(CC)CC)c2cc(C(C)=O)oc12 [Example 14, Ethyl (E)-4-[2-acetyl-4-(2-diethylcarbamoyl-1-methylvinyl)benzofuran-7-yloxy]butyrate] | 44.81%
CC(=O)c1oc2ccc(/C(C)=C/C(=O)N3CCN(c4ccccc4)CC3)cc2c1N [Example 18, (E)-3-(2-acetyl-3-aminobenzofuran-5-yl)-1-(4-phenylpiperazin-1-yl)-2-buten-1-one] | 53.91%
CC(=CC(=O)N1CCOCC1)c1cc2cccc(OC(c3ccccc3)c3ccccc3)c2o1 (stereo in doubt) [Example 42, (E)-3-(7-benzhydryloxybenzofuran-2-yl)-1-morpholino-2-buten-1-one] | 13.83%
CCNS(=O)(=O)c1ccc(OCCCC(=O)OCC)c2oc(/C(C)=C\C(=O)N(CC)CC)cc12 [Example 48, Ethyl (Z)-4-[2-(2-diethylcarbamoyl-1-methylvinyl)-4-ethylsulfamoylbenzofuran-7-yloxy]butyrate] | 53.91%

Test system: not given
Assay: not given
Settings: not given

Structure (SMILES) | melting point
CCN(CC)C(=O)/C=C(\C)c1ccc(OC(C)c2ccccc2)c2oc(C(C)=O)cc12 (stereo not shown) [Example 1, (E)-3-[2-acetyl-7-(1-phenylethoxy)benzofuran-4-yl]-N,N-diethyl-2-butenamide] | 70.8 to 73 °C
COc1cccc2cc(C(C)NC(=O)/C=C/c3ccccc3)oc12 (stereo not shown) [Example 132, (E)-N-[1-(7-methoxybenzofuran-2-yl)ethyl]-3-phenylacrylamide] | 154.5 to 156.5 °C
CCN(CC)C(=O)/C=C(\C)c1ccc(OCCCC(=O)O)c2oc(/C(C)=C/C(=O)O)cc12 [Example 2, (E)-3-[7-(3-carboxypropoxy)-4-(2-diethylcarbamoyl-1-methylvinyl)benzofuran-2-yl]-2-butenoic acid] | 199.5 to 201.9 °C
CCN(CC)C(=O)/C=C(\C)c1cc2c(Br)cc(Br)c(OCCCC(=O)O)c2o1 [Example 31, (E)-4-[4,6-dibromo-2-(2-diethylcarbamoyl-1-methylvinyl)benzofuran-7-yloxy]butyric acid] | 121 to 123 °C
CCOC(=O)/C=C(\C)c1ccc2oc(/C(Cl)=C/C=C/C(=O)N3CCOCC3)cc2c1 [Example 148, Ethyl 3-[2-(1-chloro-5-morpholin-4-yl-5-oxo-penta-(1Z,3E)-1,3-dienyl)benzofuran-5-yl]-(E)-2-butenoate] | 194.6 to 196.5 °C
O=C(/C=C/c1ccccc1)Nc1c(Cl)oc2ccc(Br)cc12 [Example 180, (E)-N-(5-bromo-2-chlorobenzofuran-3-yl)-3-phenylacrylamide] | 248.7 to 250.3 °C
C/C=C/C(=O)Nc1c(C(C)=O)oc2ccc(Br)cc12 [Example 123, (E)-N-(2-acetyl-5-bromobenzofuran-3-yl)-2-butenamide] | 127.8 to 130 °C
Cc1oncc1C(=O)Nc1c(C(=O)c2ccc(C#N)cc2)oc2ccc(Br)cc12 [Example 73, N-[5-bromo-2-(4-cyanobenzoyl)benzofuran-3-yl]-5-methylisoxazole-4-carboxamide] | 236.3 to 238.9 °C
COc1ccc(NC(=O)/C=C/C=C(\Cl)c2cc3cccc(OCCCCl)c3o2)cc1OC [Example 53, (2E,4Z)-5-chloro-5-[7-(3-chloropropoxy)benzofuran-2-yl]penta-2,4-dienoic acid (3,4-dimethoxyphenyl)amide] | 167.5 to 169 °C
COc1ccc(CCNC(=O)/C=C/C=C(\Cl)c2cc3cccc(OCCCCl)c3o2)cc1OC [Example 60, (2E,4Z)-5-chloro-5-[7-(3-chloropropoxy)benzofuran-2-yl]penta-2,4-dienoic acid [2-(3,4-dimethoxyphenyl)ethyl]amide] | 149 to 150 °C
C/C=C/C(=O)Nc1c(C(=O)/C=C/N(C)C)oc2ccc(Br)cc12 [Example 177, (E)-2-butenoic acid [5-bromo-2-(3-dimethylamino-(E)-acryloyl)benzofuran-3-yl]amide] | 247.5 to 249.5 °C
COc1ccc(/C=C/C(=O)c2oc3ccc(Br)cc3c2NC(=O)CCCl)cc1 [Example 195, (E)-N-{5-bromo-2-[3-(4-methoxyphenyl)-acryloyl]benzofuran-3-yl}-3-chloropropionamide] | 170.7 to 172 °C
Cc1oncc1C(=O)Nc1c(C(=O)/C=C/c2ccccc2)oc2ccc(Br)cc12 [Example 173, (E)-5-methylisoxazole-4-carboxylic acid [5-bromo-2-(3-phenylacryloyl)benzofuran-3-yl]amide] | 219.6 to 220.3 °C
Cc1oncc1C(=O)Nc1c(C(C)O)oc2ccc(Br)cc12 (stereo not shown) [Example 70, N-[5-bromo-2-(1-hydroxyethyl)benzofuran-3-yl]-5-methylisoxazole-4-carboxamide] | 125.2 to 128.8 °C
CCOC(=O)c1oc2ccccc2c1NC(=O)c1cnoc1C [Example 68, Ethyl 3-[(5-methylisoxazole-4-carbonyl)amino]benzofurane-2-carboxylate] | 166 to 168.2 °C
COc1ccc(C(=O)Nc2c(Cl)oc3ccc(Br)cc23)cc1 [Example 200, N-(5-bromo-2-chlorobenzofuran-3-yl)-4-methoxybenzamide] | 195.5 to 197 °C
COc1cccc2cc(/C(Cl)=C/C=C/C#N)oc12 [Example 61, (2E,4Z)-5-chloro-5-(7-methoxybenzofuran-2-yl)penta-2,4-dienenitrile] | 98.9 to 101.2 °C
CC(=O)NC(C)c1cc2ccccc2o1 (stereo not shown) [Example 190, N-(1-benzofuran-2-ylethyl)acetamide] | 128 to 130 °C
C/C(O)=C(\C#N)C(=O)Nc1c(C(=O)/C=C/c2ccccc2)oc2ccc(Br)cc12 [Example 174, 2-cyano-3-hydroxy-(Z)-2-butenoic acid [5-bromo-2-((E)-3-phenylacryloyl)benzofuran-3-yl]amide] | 261.5 to 262.8 °C
